Source: PubChem BioAssay (NCI)
Several values for one entry are separate records, joined by “and”; a condition that tells them apart may be missing. Identical values can stand only once.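 GI50 is the concentration that inhibits growth by half. Definition used: TGI = concentration required for complete inhibition of growth.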

Columns and labels:
Test in all cases: NCI-60 cell line screen, 384-well format
[1] = tested on: 786-0 renal
[2] = tested on: A498 renal
[3] = tested on: A549 NSCLC
[4] = tested on: ACHN renal
[5] = tested on: BT-549 breast
[6] = tested on: CAKI-1 renal
[7] = tested on: CCRF-CEM leukemia
[8] = tested on: COLO 205 colon
[9] = tested on: DU-145 prostate
[10] = tested on: EKVX NSCLC
[11] = tested on: HCC-2998 colon
[12] = tested on: HCT-116 colon
[13] = tested on: HCT-15 colon
[14] = tested on: HL-60(TB) leukemia
[15] = tested on: HOP-62 NSCLC
[16] = tested on: HOP-92 NSCLC
[17] = tested on: HS 578T breast
[18] = tested on: HT29 colon
[19] = tested on: IGROV1 ovarian
[20] = tested on: K-562 leukemia
[21] = tested on: KM12 colon
[22] = tested on: LOX IMVI melanoma
[23] = tested on: M14 melanoma
[24] = tested on: MALME-3M melanoma
[25] = tested on: MCF7 breast
[26] = tested on: MDA-MB-231 breast
[27] = tested on: MDA-MB-435 melanoma
[28] = tested on: MDA-MB-468 breast
[29] = tested on: MOLT-4 leukemia
[30] = tested on: NCI-H226 lung
[31] = tested on: NCI-H23 lung
[32] = tested on: NCI-H322M lung
[33] = tested on: NCI-H460 NSCLC
[34] = tested on: NCI/ADR-RES ovarian
[35] = tested on: OVCAR-3 ovarian
[36] = tested on: OVCAR-4 ovarian
[37] = tested on: OVCAR-5 ovarian
[38] = tested on: OVCAR-8 ovarian
[39] = tested on: PC-3 prostate
[40] = tested on: RPMI-8226 leukemia
[41] = tested on: RXF 393 renal
[42] = tested on: SF-268 CNS
[43] = tested on: SF-295 CNS
[44] = tested on: SF-539 CNS
[45] = tested on: SK-MEL-2 melanoma
[46] = tested on: SK-MEL-28 melanoma
[47] = tested on: SK-MEL-5 melanoma
[48] = tested on: SK-OV-3 ovarian
[49] = tested on: SN12C renal
[50] = tested on: SNB-19 CNS
[51] = tested on: SNB-75 CNS
[52] = tested on: SW-620 colon
[53] = tested on: T-47D breast
[54] = tested on: TK-10 renal
[55] = tested on: U251 glioblastoma
[56] = tested on: UACC-62 melanoma
[57] = tested on: UO-31 renal

For `CCc1nc(C(N)=O)c(Nc2ccc(N3CCC(N4CCN(C)CC4)CC3)c(OC)c2)nc1NC1CCOCC1`, the GI50 [1] was 1030 nM and 313 nM, the TGI [1] was 5870 nM and 1580 nM and the GI50 [2] was 619 nM and 283 nM. For the same molecule, the GI50 [3] was 533 nM and 259 nM, the GI50 [4] was 593 nM and 391 nM and the TGI [4] was > 100000 nM. For the same molecule, the GI50 [5] was 551 nM and 339 nM, the TGI [5] was 2580 nM and 1730 nM and the GI50 [6] was 247 nM and 155 nM. The TGI [6] was 556 nM, the GI50 [7] was 1730 nM and 828 nM and the TGI [7] was 3390 nM and 2100 nM. For the same molecule, the GI50 [8] was 495 nM and 303 nM, the TGI [8] was 5230 nM and 1100 nM and the GI50 [9] was 491 nM and 322 nM. For the same molecule, the GI50 [10] was 463 nM, the TGI [10] was 99300 nM and the GI50 [11] was 180 nM and 253 nM. The TGI [11] was 5550 nM and 3080 nM, the GI50 [12] was 494 nM and 294 nM and the TGI [12] was 5950 nM and 3070 nM. The GI50 [13] was 458 nM and 318 nM, the TGI [13] was > 100000 nM and the GI50 [14] was 357 nM and 185 nM. For the same molecule, the TGI [14] was 1030 nM and 403 nM, the GI50 [15] was 1230 nM and 392 nM and the GI50 [16] was 114 nM and 36.3 nM. For the same molecule, the TGI [16] was 608 nM and 213 nM, the GI50 [17] was 1180 nM and the TGI [17] was 3540 nM. The GI50 [18] was 282 nM and 174 nM, the GI50 [19] was 335 nM and 179 nM and the TGI [19] was 1620 nM and 484 nM. The GI50 [20] was 1250 nM, the TGI [20] was 3940 nM and the GI50 [21] was 35.3 nM and 16.5 nM. For the same molecule, the GI50 [22] was 775 nM and 371 nM, the GI50 [23] was 402 nM and 239 nM and the TGI [23] was 1790 nM and 1160 nM. For the same molecule, the GI50 [24] was 302 nM and 155 nM, the TGI [24] was 1700 nM and 1060 nM and the GI50 [25] was 383 nM and 247 nM. The GI50 [26] was 474 nM and 370 nM, the TGI [26] was 2570 nM and 1760 nM and the GI50 [27] was 704 nM and 329 nM. For the same molecule, the TGI [27] was > 100000 nM, the GI50 [28] was 2150 nM and the GI50 [29] was 371 nM and 191 nM. The TGI [29] was 1330 nM and 375 nM, the GI50 [30] was 584 nM and 593 nM and the TGI [30] was 4610 nM. For the same molecule, the GI50 [31] was 300 nM and 123 nM, the TGI [31] was 5540 nM and 617 nM and the GI50 [32] was 674 nM and 246 nM. The GI50 [33] was 465 nM and 292 nM, the GI50 [34] was 3260 nM and 2240 nM and the TGI [34] was > 100000 nM. For the same molecule, the GI50 [35] was 1170 nM and 584 nM, the TGI [35] was > 25600 nM and 4320 nM and the GI50 [36] was > 100000 nM. The TGI [36] was > 100000 nM, the GI50 [37] was 503 nM and 216 nM and the GI50 [38] was 5100 nM and 758 nM. The TGI [38] was > 100000 nM, the GI50 [39] was 385 nM and 672 nM and the TGI [39] was > 100000 nM. The GI50 [40] was 975 nM and 255 nM, the TGI [40] was 4200 nM and 984 nM and the GI50 [41] was 1170 nM and 208 nM. For the same molecule, the GI50 [42] was 2190 nM and 1360 nM, the TGI [42] was > 26500 nM and the GI50 [43] was 4620 nM and 1040 nM. For the same molecule, the TGI [43] was > 20900 nM and 3070 nM, the GI50 [44] was 1910 nM and 638 nM and the TGI [44] was 6720 nM and 2320 nM. It also gave a GI50 [45] of 242 nM, a TGI [45] of 1300 nM and a GI50 [46] of 227 nM. The TGI [46] was 986 nM, the GI50 [47] was 661 nM and 406 nM and the TGI [47] was > 100000 nM. The GI50 [48] was 339 nM and 160 nM, the GI50 [49] was 168 nM and 67.1 nM and the TGI [49] was > 100000 nM. The GI50 [50] was 3390 nM and 1080 nM, the TGI [50] was > 100000 nM and the GI50 [51] was 1360 nM. For the same molecule, the TGI [51] was 4160 nM, the GI50 [52] was 587 nM and 444 nM and the TGI [52] was 2070 nM and 1580 nM. The TGI [53] was > 100000 nM, the GI50 [54] was 1680 nM and 818 nM and the GI50 [55] was 6480 nM and 834 nM. The GI50 [56] was 396 nM and 214 nM, the TGI [56] was 1320 nM and the GI50 [57] was 457 nM and 231 nM.
